Source: patent US6008219A, “Bicyclic amine derivatives and their use as anti-psychotic agents” (SmithKline Beech p.l.c., priority 1995, dated 1999)
Where a name gives a salt, the structure may show the parent alone.

Target: human D3 receptor (Homo sapiens, UniProt P35462)
Experiment: Cytosensor Microphysiometer functional activity, antagonist mode against quinpirole (hD3-CHO cells)
Assay type: cell-based
Details: against 30 nM quinpirole, acidification rate, read-out: pKb values at the human D3 receptor (tested as antagonists) (converted)

Sequence of human D3 receptor (P35462 whole entry): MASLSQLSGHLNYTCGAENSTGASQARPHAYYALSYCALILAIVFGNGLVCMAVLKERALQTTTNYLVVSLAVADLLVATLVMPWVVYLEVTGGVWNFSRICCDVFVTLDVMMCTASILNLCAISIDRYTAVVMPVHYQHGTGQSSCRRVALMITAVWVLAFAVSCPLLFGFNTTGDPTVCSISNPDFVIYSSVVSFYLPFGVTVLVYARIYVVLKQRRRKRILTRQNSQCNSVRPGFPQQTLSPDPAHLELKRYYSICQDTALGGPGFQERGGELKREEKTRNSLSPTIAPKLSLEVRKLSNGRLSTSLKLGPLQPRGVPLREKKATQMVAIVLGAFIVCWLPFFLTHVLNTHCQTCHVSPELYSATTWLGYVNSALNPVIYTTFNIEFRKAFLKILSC

SMILES | Kb
CCCN(CCCCNC(=O)c1ccc(-c2ccccc2)cc1)C1Cc2ccccc2C1 [Example 2p, N-(4-(4-Phenylbenzoylamino)butyl)-2-propylaminoindane, hydrochloride] | 0.0316 to 10 nM
CCCN(CCCCNC(=O)c1ccc(-c2ccccc2)cc1)C1CCc2c(Cl)cccc2C1 (racemic) [Example 2k, 5-Chloro-N-(4-(4-phenylbenzoylamino)butyl)-2-(R,S)-propylamino-1,2,3,4-tetrahydronaphthalene, hydrochloride] | 0.0316 to 10 nM
CCCN(CCCCNC(=O)c1ccc(-c2ccccc2)cc1)C1CCc2cc(OC(F)(F)F)ccc2C1 (racemic) [Example 2x, N-(4-(4-Phenylbenzoylamino)butyl)-2-(R,S)-propylamino-6-trifluoromethoxy-1,2,3,4-tetrahydronaphthalene, hydrochloride] | 0.0316 to 10 nM
CCCN(CCCCNC(=O)c1ccc(-c2ccccc2)cc1)C1CCc2c(cccc2OS(C)(=O)=O)C1 (racemic) [Example 17, 5-Methanesulfonyloxy-N-(4-(4-phenylbenzoylamino)butyl)-2-(R,S)-propylamino-1,2,3,4-tetrahydronaphthalene, hydrochloride] | 0.0316 to 10 nM
CCCN(CCCCNC(=O)c1ccc(-c2ccccc2)cc1)C1CCc2c(cccc2OS(=O)(=O)C(F)(F)F)C1 (racemic) [Example 15, N-(4-(4-Phenylbenzoylamino)butyl)-2-(R,S)-propylamino-5-trifluoromethanesulfonyloxy-1,2,3,4-tetrahydronaphthalene, hydrochloride] | 0.0316 to 10 nM
CCCN(CCCCNC(=O)c1ccc(-c2ccccc2)cc1)C1CCc2ccc(Cl)cc2C1 (racemic) [Example 2m, 7-Chloro-N-(4-(4-phenylbenzoylamino)butyl)-2-(R,S)-propylamino-1,2,3,4-tetrahydronaphthalene, hydrochloride] | 0.0316 to 10 nM

Continued, values first:

Kb | SMILES
0.0316 to 10 nM | CCCN(CCCCNC(=O)c1ccc(-c2ccccc2)cc1)C1CCc2ccccc2C1 (racemic) [Example 10f, N-(4-(4-phenylbenzoylamino)butyl)-2-(R,S)-propylamino-1,2,3,4-tetrahydronaphthalene, hydrochloride]
0.0316 to 10 nM | CCCN(CCCCNC(=O)c1ccc(-c2ccccc2)cc1)C1CCc2c(CC(=O)OCC)cccc2C1 (racemic) [Example 3bb, N-(4-(4-Phenylbenzoylamino)butyl)-6-(R,S)-propylamino-5,6,7,8-tetrahydronaphthalene-1-acetic acid, ethyl ester, hydrochloride]
0.0316 to 10 nM | CCCN(CCCCNC(=O)c1ccc(-c2ccccc2)cc1)C1CCc2cc(CC(=O)OCC)ccc2C1 (racemic) [Example 3cc, N-(4-(4-Phenylbenzoylamino)butyl)-6-(R,S)-propylamino-5,6,7,8-tetrahydronaphthalene-2-acetic acid, ethyl ester, hydrochloride]
0.0316 to 10 nM | CCCN(CCCCNC(=O)c1ccc(-c2ccccc2)cc1)C1CCc2ccc(CC(=O)OCC)cc2C1 (racemic) [Example 3dd, N-(4-(4-Phenylbenzoylamino)butyl)-7-(R,S)-propylamino-5,6,7,8-tetrahydronaphthalene-2-acetic acid, ethyl ester, hydrochloride]
